# Source: patent US20210275480A1, “COMPOSITIONS AND METHODS FOR THE REDUCTION OR TREATMENT OF FIBROSIS” (AXCELLA HEALTH INC., priority 2018, published 2021)
# Legend:
# Assay type in all cases: cell-based
# [1] = tested on: Hsp47 gene expression, primary human hepatic stellate cells; test: Hsp47 gene expression in TGFβ1-stimulated primary human hepatic stellate cells; settings: for Hsp47 Fold Expression Relative to Control, Mean: first donor, normalized to Gapdh, single amino acid
# Method: Primary human hepatic stellate cells were obtained from Samsara Sciences based on the following criteria for selecting donors: adult age (between 18 and 50 years), normal BMI (>18.5 and <25), and absence of confounding liver disease. Cells grown in Complete HSC Medium to ˜80% confluence in T75 or T150 flasks below passage 10 were seeded into sterile, collagen I coated, 96-well optical plastic microplates (ThermoScientific, 152036) at 6000 cells per well (1250 cells per cm2) and incubated overnight at 37° C., 5% CO2 in a humidified incubator in DMEM with 2% Fetal Bovine Serum and 1% Antibiotic-Antimycotic.
# After the overnight incubation, plates were removed from the incubator and the medium was gently pipetted off and washed twice with 150 μL per well DPBS. The DPBS was removed and the pretreatment medium (±single amino acid dropout, 1×HMDB DMEM+1% Antibiotic-Antimycotic, 10 mM HEPES, ±supplemental amino acid dose; see experiment for medium composition) was applied to the cells at 150 μL per well. Plates were returned to the incubator for 10.5 hours.
# After 10.5 hour pretreatment, the medium was removed from the cells, and the same pretreatment medium, now supplemented with 3 ng/mL TGFβ1, was applied. Each plate contained 3 ng/mL TGFβ1 in 1× human plasma amino acid (HMDB or PAA) concentration medium, 0 ng/mL in 1×HMDB, and 3 ng/mL TGFβ1+20 μM Silybin in 1×HMDB to serve as controls. Plates were then incubated for 24 hours at 37° C., 5% CO2.
# After 24 hour stimulus, supernatant was removed and frozen at −80° C. in two separate aliquots. The cells were then washed with 125 μL per well Buffer FCW (FastLane Cell Multiplex NR Kit, Qiagen, 216713). The wash buffer was immediately removed and 50 μL of Cell Processing Mix (containing genomic DNA Wipeout buffer) was applied to lyse cells, incubating for 10 minutes at room temperature. RNA lysate was then transferred to 96-well qPCR plates, sealed, and gDNA was digested on thermal cycler at 75° C. for 5 minutes. RNA lysate was frozen at −80° C.
# Each 20 μL one-step RT-qPCR reaction contained 4 μL of RNA lysate. Gene expression of Hsp47, and Gapdh were multiplexed using the HEX, and FAM fluorescent channels, respectively, with commercially available primer-probe mixes (the Human Hsp47 Primer-Probe Set, HEX; and the Human Gapdh Primer-Probe Set, FAM from IDT). Gene expression was evaluated using the ΔΔCq method within each single amino acid dropout and supplementation by normalizing to its own 1×HMDB concentration.
# [2] = tested on: procollagen Iα1 secretion, primary human hepatic stellate cells; test: Procollagen Iα1 secretion by TGFβ1-stimulated primary human hepatic stellate cells, ELISA
# Method: (§1) Primary human hepatic stellate cells were obtained from Samsara Sciences. Cells were grown in Complete HSC Medium to ˜80% confluence in T75 or T150 flasks below passage 10 were seeded into sterile, collagen I coated, 96-well optical plastic microplates (ThermoScientific, 152036) and incubated overnight at 37° C., 5% CO2 in a humidified incubator in DMEM with 2% Fetal Bovine Serum and 1% Antibiotic-Antimycotic. After the overnight incubation, plates are washed and pretreated with medium±single amino acid dropout, 1×HMDB DMEM±supplemental amino acid dose for 10.5 hours. After 10.5 hour pretreatment, the same pretreatment medium supplemented with 3 ng/mL TGFβ1, was applied and incubated for 24 hours at 37° C., 5% CO2. After 24 hour stimulus, supernatant was removed, RNA was extracted and gene expression was evaluated using the ΔΔCq method within each single amino acid dropout and supplementation by normalizing to its own 1×HMDB concentration.
# Human Procollagen 1α1 was measured from the supernatant by ELISA (Human ProCollagen I alpha 1 DuoSet ELISA, R&D Systems) at 1/100 dilution in 1× Reagent Diluent (Reagent Ancillary Kit 2, R&D Systems).
# Tables 32, 33, 33-1, 33-2, 33-3, and 33-4 show the fold change in procollagen Iα1 in primary human hepatic stellate cells from three different healthy donors normalized to their respective baseline amino acid conditions. Statistical significance calculated by one-way
# [3] = tested on: Col1a1 gene expression, primary human hepatic stellate cells; test: Col1a1 gene expression in TGFβ1-stimulated primary human hepatic stellate cells; settings: for Col1a1 Fold Expression Relative to Control, Mean: normalized to Gapdh
# Method: as §1
# [4] = primary human hepatic stellate cells, three healthy donors, TGFβ1 3 ng/mL 24 h, summary in words
# [5] = first donor, 66 μM (baseline, reference)
smiles,measurement,setting,value
"CC[C@H](C)[C@H](N)C(=O)O [ILE, isoleucine]","Hsp47 Fold Expression Relative to Control, normalized to Gapdh (Mean)","[1]; Table 38, second donor, 66 μM (baseline 1×HMDB concentration)",1.00 fold
same,"Hsp47 Fold Expression Relative to Control, normalized to Gapdh (Mean)","[1]; Table 38, second donor, 1328 μM",0.90 fold
same,"Hsp47 Fold Expression Relative to Control, normalized to Gapdh (Mean)","[1]; Table 38, second donor, 3320 μM",0.92 fold
same,"Hsp47 Fold Expression Relative to Control, normalized to Gapdh (Mean)","[1]; Table 38, second donor, 6639 μM",0.94 fold
same,"Hsp47 Fold Expression Relative to Control, normalized to Gapdh (Mean)","[1]; Table 40, second donor (so in the source), 66 μM (baseline 1×HMDB concentration)",1.00 fold
same,"Hsp47 Fold Expression Relative to Control, normalized to Gapdh (Mean)","[1]; Table 40, second donor (so in the source), 1328 μM",1.00 fold
same,"Hsp47 Fold Expression Relative to Control, normalized to Gapdh (Mean)","[1]; Table 40, second donor (so in the source), 3320 μM",0.98 fold
same,"Hsp47 Fold Expression Relative to Control, normalized to Gapdh (Mean)","[1]; Table 40, second donor (so in the source), 6639 μM",1.06 fold
same,"Hsp47 Fold Expression Relative to Control, Mean",[1]; 66 μM (1X reference),1.00 fold
same,"Hsp47 Fold Expression Relative to Control, Mean",[1]; 1328 μM,1.07 fold
same,"Hsp47 Fold Expression Relative to Control, Mean",[1]; 3320 μM,1.22 fold
same,"Hsp47 Fold Expression Relative to Control, Mean",[1]; 6639 μM,0.99 fold
same,Hsp47 gene expression,[1]; [4],did not significantly change
same,"Procollagen Ia1 Secretion (Fold Change of 1X), Mean",[2]; [5],1.0000 fold
same,"Procollagen Ia1 Secretion (Fold Change of 1X), Mean","[2]; first donor, 1328 μM",0.9229 fold
same,"Procollagen Ia1 Secretion (Fold Change of 1X), Mean","[2]; first donor, 3320 μM",1.1366 fold
same,"Procollagen Ia1 Secretion (Fold Change of 1X), Mean","[2]; first donor, 6639 μM",1.2144 fold
same,procollagen Iα1 secretion,[2]; [4],significantly increased procollagen Iα1 secretion in two of three donors
same,"Procollagen Ia1 Secretion (Fold Change of 1X), Mean","[2]; second donor, single amino acid, 66 μM (1X reference)",1.0000 fold change
same,"Procollagen Ia1 Secretion (Fold Change of 1X), Mean","[2]; second donor, single amino acid, 1328 μM",1.4811 fold change
same,"Procollagen Ia1 Secretion (Fold Change of 1X), Mean","[2]; second donor, single amino acid, 3320 μM",1.4940 fold change
same,"Procollagen Ia1 Secretion (Fold Change of 1X), Mean","[2]; second donor, single amino acid, 6639 μM",1.5423 fold change
same,"Procollagen Ia1 Secretion (Fold Change of 1X), Mean","[2]; third donor, single amino acid, 66 μM (1X reference)",1.0000 fold change
same,"Procollagen Ia1 Secretion (Fold Change of 1X), Mean","[2]; third donor, single amino acid, 1328 μM",1.2687 fold change
same,"Procollagen Ia1 Secretion (Fold Change of 1X), Mean","[2]; third donor, single amino acid, 3320 μM",1.2703 fold change
same,"Procollagen Ia1 Secretion (Fold Change of 1X), Mean","[2]; third donor, single amino acid, 6639 μM",1.4465 fold change
same,"Col1a1 Fold Expression Relative to Control, Mean","[3]; Table 31-4, second donor, 66 μM (baseline, reference)",1.02 fold
same,"Col1a1 Fold Expression Relative to Control, Mean","[3]; Table 31-4, second donor, 1328 μM",0.94 fold
same,"Col1a1 Fold Expression Relative to Control, Mean","[3]; Table 31-4, second donor, 3320 μM",0.94 fold
same,"Col1a1 Fold Expression Relative to Control, Mean","[3]; Table 31-4, second donor, 6639 μM",1.03 fold
same,"Col1a1 Fold Expression Relative to Control, Mean",[3]; [5],1.01 fold
same,"Col1a1 Fold Expression Relative to Control, Mean","[3]; first donor, 1328 μM",1.05 fold
same,"Col1a1 Fold Expression Relative to Control, Mean","[3]; first donor, 3320 μM",1.10 fold
same,"Col1a1 Fold Expression Relative to Control, Mean","[3]; first donor, 6639 μM",1.11 fold
same,Col1a1 gene expression,[3]; [4],did not significantly change
same,"Col1a1 Fold Expression Relative to Control, Mean","[3]; second donor, 66 μM (baseline, reference)",1.00 fold
same,"Col1a1 Fold Expression Relative to Control, Mean","[3]; second donor, 1328 μM",0.97 fold
same,"Col1a1 Fold Expression Relative to Control, Mean","[3]; second donor, 3320 μM",0.99 fold
same,"Col1a1 Fold Expression Relative to Control, Mean","[3]; second donor, 6639 μM",1.03 fold
